Assay results published in paper PMC9312958, “A Novel and Selective Dopamine Transporter Inhibitor, (S)-MK-26, Promotes Hippocampal Synaptic Plasticity and Restores Effort-Related Motivational Dysfunctions” (Biomolecules, 2022).

Tests used:
[1] = system: DAT; set-up: method as in PMID 16885432; conditions: read-out: IC50, DAT-inhibiting power; cited from earlier work
[2] = target: T1, hSERT (Homo sapiens, UniProt P31645); test: Uptake inhibition assay in HEK293 cells expressing hSERT; format: cell-based
T1 construct: expressed in transfected cells
Protocol: (§1) Human embryonic kidney 293 cells (HEK293 cells) were cultivated in Dulbecco’s Modified Eagle Medium (DMEM), containing 10% heat-inactivated fetal calf serum (FCS; 100 mL/L), streptomycin (100 μg/100 mL) and penicillin ([…]). Geneticin (50 μg/mL) was added to select cells stably expressing the human isoforms of dopamine, norepinephrine and serotonin transporter (hDAT, hNET, and hSERT, respectively) as described earlier. Cell lines were maintained in culture in humidified atmosphere (37 °C, 5% CO2), and passaged when reached 80–90% confluency. Cells expressing the desired transporter were seeded the day before the experiment (40,000 cells per well) or two days before the experiments (20,000 cells per well) onto poly-D-lysine (PDL)-coated 96-well plates.
Uptake inhibition experiments were carried out as reported previously. […] Thereafter, 200 μL of Ultima Gold^TM XR scintillation cocktail (PerkinElmer, MA, USA) was added, the plates were shaken and the radioactivity accumulated into the cells determined in a Wal-lac 1450 MicroBeta TriLux Liquid Scintillation Counter & Lumi (GMI, Ramsey, MN, USA). Non- specific tritiated substrate uptake was measured in the presence of 100 μM cocaine (for hDAT and hNET) or 10 μM paroxetine (for hSERT), and subtracted from the data. […]

[3] = target: T2, hNET (Homo sapiens, UniProt P23975); test: Uptake inhibition assay in HEK293 cells expressing hNET; format: cell-based
T2 construct: expressed in transfected cells
Protocol: as §1
(§2) Uptake inhibition experiments were carried out as reported previously. Ninety-six-well plates containing hDAT-, hNET- or hSERT-expressing cells were washed with Krebs-HEPES buffer (KHB; 25 mM HEPES, 120 mM NaCl, 5 mM KCl, 1.2 mM CaCl2, and 1.2 mM MgSO4 and 5 mM D-glucose, pH = 7.3). Cells were then preincubated with increasing concentrations of the compound diluted in KHB for 6 min. Following the pre-incubation of the cells with the compound, the tritiated substrate (hDAT: 0.15 μM [^3H]DA; hNET: 0.05 μM [^3H]MPP^+; hSERT: 0.1 μM [^3H]5-HT) was added to the wells. The uptake was terminated by removal of tritiated substrate and by washing the cells with ice-cold KHB after 1 min (for hDAT and hSERT) or 3 min (for hNET). Thereafter, 200 μL of Ultima Gold^TM XR scintillation cocktail (PerkinElmer, MA, USA) was added, the plates were shaken and the radioactivity accumulated into the cells determined in a Wal-lac 1450 MicroBeta TriLux Liquid Scintillation Counter & Lumi (GMI, Ramsey, MN, USA). Non- specific tritiated substrate uptake was measured in the presence of 100 μM cocaine (for hDAT and hNET) or 10 μM paroxetine (for hSERT), and subtracted from the data. Uptake in the presence of test drugs was normalized to the uptake in the presence of the vehicle.

[4] = target: T3, hDAT (Homo sapiens, UniProt Q01959); test: Uptake inhibition assay in HEK293 cells expressing hDAT; format: cell-based
T3 construct: expressed in transfected cells
Protocol: as §1, §2

[5] = system: adult male Sprague Dawley rats; test: FR5/chow feeding choice task; format: in vivo, rat; conditions: 1.0 mg/kg TBZ plus vehicle vs vehicle plus vehicle
Protocol: Pharmacological agents: (S)-MK-26 was obtained from the Lubec Laboratory (University of Vienna, Austria) and dissolved in dimethyl sulfoxide (DMSO) (10%), Tween 80 (15%), and 0.9% saline (75%). The DMSO/Tween 80/saline mixture was administered as the vehicle control. The dose range was selected as 3.75–45.0 mg/kg based on its DAT affinity and pilot studies. It was administered 30 min before testing. TBZ (9,10-dimethoxy3-(2-methylpropyl)-1,3,4,6,7, 11b hexahydrobenzo[a]quinolizin2-one) was obtained from Tocris Bioscience (Ellisville, MO) and was dissolved in DMSO (20%) and 0.9% saline (80%) and was titrated with 1.0 N HCl until the drug was dissolved at a pH of 4.0–4.5. The DMSO/saline solution with equal amounts of HCl was administered as the vehicle control. The selected dose was 1.0mg/kg based on the previous research from our laboratory. It was administered 120 min prior to testing.
FR5/chow feeding choice task: A total of 8 adult male Sprague Dawley rats (Envigo Sprague Dawley, Indianapolis, IN, USA; weights 275–299 g upon arrival) were pair-housed in a colony maintained at 23 °C, with a 12 h light/dark cycle (lights on 07:00). Rats were food deprived to 85% of their free-feeding body weight with modest growth throughout the experiment and water was available ad libitum in their home cages. All the animal protocols were approved by the University of Connecticut Institutional Animal Care and Use Committee, and the experiments were completed according to National Institutes of Health guidelines.
Behavioral sessions were conducted in operant chambers (28 × 23 × 23 cm^3; Med Associates, Fairfax, VT, USA) with 30 min sessions 5 days/week. Rats were initially trained to lever press on magazine training for 3 days, followed by an FR1 schedule for 3 days (high-carbohydrate 45-mg pellets, Bio-Serv, Frenchtown, NJ, USA), and then moved to the FR5 schedule. After 5 weeks of training on the FR5 schedule, lab chow was introduced as the concurrently available choice food (Laboratory Diet, 5P00 Prolab RMH 3000, Purina Mills, St. Louis, MO, USA; typically 15–20 g). At the end of each session, rats were immediately removed from the chambers. The number of lever pressing was recorded and the amount of consumed chow was calculated by weighing the remaining food, including spillage. Rats were trained on the FR5/chow feeding choice task for 5 weeks, after which drug testing began.
To test the effects of (S)-MK-26 on FR5/Chow feeding choice task, trained rats were administered either with TBZ (1.0 mg/kg) or vehicle 120 min before testing, and (S)-MK-26 also with doses of 15.0, 30.0, 45.0 mg/kg or vehicle 30 min before testing, via intraperitoneal (IP) injections on drug testing days. A repeated-measures design was utilized where each rat received each drug treatment in a randomly varied order, once per week. The following five treatment combinations were given: TBZ vehicle + (S)-MK-26 vehicle; 1.0 mg/kg TBZ + (S)-MK-26 vehicle; 1.0 mg/kg TBZ + 15.0 mg/kg (S)-MK-26; 1.0 mg/kg TBZ + 30.0 mg/kg (S)-MK-26; 1.0 mg/kg TBZ + 45.0 mg/kg (S)-MK-26. Next, to see if the effects of lower doses, the following four treatment combinations were given in a repeated measure design: TBZ vehicle + (S)-MK-26 vehicle; 1.0 mg/kg TBZ + (S)-MK-26 vehicle; 1.0 mg/kg TBZ + 3.75 mg/kg (S)-MK-26; 1.0 mg/kg TBZ + 7.5 mg/kg (S)-MK-26.

T2 sequence (P23975 whole entry): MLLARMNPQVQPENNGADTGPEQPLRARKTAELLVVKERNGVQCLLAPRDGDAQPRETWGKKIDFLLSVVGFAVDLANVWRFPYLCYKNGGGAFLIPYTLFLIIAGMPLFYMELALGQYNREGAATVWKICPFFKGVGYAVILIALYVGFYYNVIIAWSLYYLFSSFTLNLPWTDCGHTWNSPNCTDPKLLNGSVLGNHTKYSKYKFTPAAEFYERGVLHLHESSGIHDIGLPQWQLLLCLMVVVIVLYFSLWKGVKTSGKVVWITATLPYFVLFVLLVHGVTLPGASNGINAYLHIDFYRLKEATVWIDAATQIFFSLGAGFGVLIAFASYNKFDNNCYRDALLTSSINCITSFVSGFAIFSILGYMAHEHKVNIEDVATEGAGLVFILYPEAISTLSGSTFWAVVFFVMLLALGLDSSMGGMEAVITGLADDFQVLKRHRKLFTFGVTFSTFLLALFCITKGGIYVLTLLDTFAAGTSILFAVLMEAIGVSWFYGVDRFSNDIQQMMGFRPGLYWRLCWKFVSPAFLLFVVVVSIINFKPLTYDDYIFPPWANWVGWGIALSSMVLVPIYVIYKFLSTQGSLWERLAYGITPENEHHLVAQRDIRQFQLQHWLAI
T1 sequence (P31645 whole entry): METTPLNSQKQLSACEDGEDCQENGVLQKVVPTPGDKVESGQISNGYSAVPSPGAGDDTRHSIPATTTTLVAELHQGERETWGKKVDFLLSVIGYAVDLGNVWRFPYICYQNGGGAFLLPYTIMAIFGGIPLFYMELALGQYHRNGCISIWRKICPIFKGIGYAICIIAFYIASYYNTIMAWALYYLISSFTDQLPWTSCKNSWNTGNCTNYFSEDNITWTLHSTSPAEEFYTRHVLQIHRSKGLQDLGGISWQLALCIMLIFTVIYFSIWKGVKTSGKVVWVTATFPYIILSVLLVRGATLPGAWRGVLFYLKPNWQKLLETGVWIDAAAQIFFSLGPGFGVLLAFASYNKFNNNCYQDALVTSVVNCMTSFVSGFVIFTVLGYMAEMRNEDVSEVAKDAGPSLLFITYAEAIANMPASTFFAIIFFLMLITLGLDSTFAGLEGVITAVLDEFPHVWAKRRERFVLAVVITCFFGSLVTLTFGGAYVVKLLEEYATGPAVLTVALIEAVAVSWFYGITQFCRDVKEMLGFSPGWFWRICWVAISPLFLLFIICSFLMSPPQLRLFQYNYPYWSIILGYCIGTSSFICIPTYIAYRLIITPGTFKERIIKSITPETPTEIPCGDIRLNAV
T3 sequence (Q01959 whole entry): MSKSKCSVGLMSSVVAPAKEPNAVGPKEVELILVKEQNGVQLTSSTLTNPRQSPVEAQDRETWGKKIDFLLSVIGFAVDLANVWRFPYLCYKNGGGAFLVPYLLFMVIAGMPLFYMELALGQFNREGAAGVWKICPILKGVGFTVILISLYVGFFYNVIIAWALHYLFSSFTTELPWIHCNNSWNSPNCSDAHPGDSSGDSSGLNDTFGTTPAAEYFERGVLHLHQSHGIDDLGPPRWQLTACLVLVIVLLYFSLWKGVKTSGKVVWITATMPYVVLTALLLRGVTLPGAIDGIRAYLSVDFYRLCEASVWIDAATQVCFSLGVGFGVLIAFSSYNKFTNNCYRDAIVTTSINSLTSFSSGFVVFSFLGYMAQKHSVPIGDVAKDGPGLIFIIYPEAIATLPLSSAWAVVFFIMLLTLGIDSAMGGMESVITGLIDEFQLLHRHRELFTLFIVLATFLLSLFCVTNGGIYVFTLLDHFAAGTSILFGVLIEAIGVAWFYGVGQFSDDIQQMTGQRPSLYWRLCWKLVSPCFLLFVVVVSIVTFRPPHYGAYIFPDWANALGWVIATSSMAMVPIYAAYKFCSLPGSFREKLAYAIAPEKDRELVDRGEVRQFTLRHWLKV

In the case of `[O-][S@+](Cc1cncs1)C(c1cccc(Cl)c1)c1cccc(Cl)c1` [(R)-MK-26, (R)-5-(((bis(3-chlorophenyl)methyl)sulphinyl)methyl)thiazole], the IC50 [2] is reported as > 1000 µM, the IC50 [3] is reported as 2160 µM and the IC50 [4] is reported as 36.3 µM.
Compound `NC(=O)C[S@@+]([O-])C(c1ccccc1)c1ccccc1` [(R)-Modafinil, reference compound] has an IC50 [3] of 127 µM.
With `COc1cc2c(cc1OC)C1CC(=O)C(CC(C)C)CN1CC2` (stereo not shown) [TBZ, 9,10-dimethoxy3-(2-methylpropyl)-1,3,4,6,7, 11b hexahydrobenzo[a]quinolizin2-one, reference compound] the “effect on chow intake” value [5] was “increasing chow intake” and the “effect on lever pressing” value [5] was “decreasing lever pressing”.
